Measured values from patent US20110306570A1, “Na/K-Atpase Expression as an Indicator for the Treatment of Cancer” (UNIVERSITY OF TOLEDO, priority 2008, published 2011).
Entries after “also recorded” stand apart in the source; their conditions may differ.

Key:
[1] = test system: BT20 cells; assay: MTT cell growth assay, BT20 cells; type: cell-based, human; conditions: 24 h
Description: FIG. 1A: LLC-PK1 cells, BT20 cells, and DU145 cells were subcultured in 96-well plates (10,000 cells/well) and serum starved. […] Cells were solublized by adding 100 μl/well detergent provided by ATCC after 90 min of incubation and OD570 was then measured.
(§1) MTT assay for measuring cell proliferation: Cells were sub-cultured in 96 well plates at 10,000 cells/well in 100 μl culture medium. […] Ten μl MTT reagent (3-4,5-dimethylthiazol-2-yl)-2,5-diphenyltetrazolium bromide) was added to each well for 90 min. The formazan crystal was dissolved with detergent and the OD value was measured at 570 nm.

[2] = test system: P-11 cells (control vector-transfected LLC-PK1); assay: MTT cell growth assay, control P-11 cells; type: cell-based, pig; conditions: ouabain 1 to 10 nM, 16 h
Description: as §1

[3] = biological target: T1, Na/K-ATPase α1 (Sus scrofa, UniProt P05024); assay: Na/K-ATPase α1 expression by Western blot, LLC-PK1 cells; type: cell-based, pig
T1 construct: endogenous in cells; host or cells: LLC-PK1 (ATCC) and its caveolin-1 knock-down line C2-9
Description: FIG. 7A: LLC-PK1 cells were pre-treated with 10 nM rapamycin or 50 μM LY294002 for 30 min. […] The cell lysates were analyzed for Na/K-ATPase α1 using Western blot.

[4] = biological target: T2, Na/K-ATPase α1 (Mus musculus, UniProt Q8VDN2); assay: Na/K-ATPase α1 expression, SYF cells; type: cell-based; conditions: SYF cells (Src, Yes, Fin knocked out), 0.5 and 1.0 μM ouabain
T2 construct: endogenous in cells; host or cells: SYF cells; SYF cells rescued by c-Src
Text: To further understand the molecular mechanism of ouabain-induced up-regulation of α1, the inventors first addressed the role of Src.

[5] = biological target: T1, Na/K-ATPase α1; assay: Na/K-ATPase α1 expression, caveolin-1 knock-down C2-9 cells; type: cell-based, pig; conditions: C2-9 caveolin-1 knockdown cells, 5 and 10 nM ouabain, 72 h
[6] = test system: Na/K-ATPase α1 mRNA; assay: Na/K-ATPase α1 mRNA by RT-PCR, DU145 cells; type: cell-based, human; conditions: 10 nM ouabain, 24 h
Description: Total RNA was extracted and applied for RT-PCR to probe Na/K-ATPase α1 as described in the Experimental Procedures section.
Quantitative RT-PCR: The cells were seeded in 6-cm dishes and serum-starved for 24 h after the confluence reached 90%. […] Total RNA was extracted using TRIzol and subjected to quantitative RT-PCR analysis. The assays were performed on the AB 7500 real time PCR system with the following protocol: 1 cycle (6 min at 95° C.), 40 cycles (30 s at 95° C., 30 s at 52° C., 30 s at 72° C., and 1 min at 85° C.), followed by a dissociation stage to ensure a single product. The reactions are in a total volume of 25 μl, including 1.25 µl of Sybr Green (Invitrogen), 0.125 µl of DNA polymerase (Denville), 2.5 µl of dNTP (Invitrogen), 10 ng of cDNA. Primer pairs were used at 5 μM concentration, and the sequences are:
The relative Na/K-ATPase al gene expression was calculated by comparative threshold (CT) method (ΔΔCT). To normalize the difference amounts of cDNA, GAPDH was used as an internal control.

[7] = biological target: T1, Na/K-ATPase α1; assay: Na/K-ATPase α1 degradation with cycloheximide, LLC-PK1 cells; type: cell-based, pig; conditions: cycloheximide pre-treatment, 10 nM ouabain for 6, 16 and 24 h
Text: Cells without any treatment or only treated with CHX were used as control. The cells were collected at different time points and lysed in RIPA buffer. Equal amount of protein was loaded to analyze the Na/K-ATPase by Western blot. The representative Western blot and the quantification data from 4 experiments were shown. The Na/K-ATPase α1 amount at each time point was normalized against the control at the same time point.

[8] = test system: Akt; assay: Akt phosphorylation (pAkt) by Western blot, LLC-PK1 cells; type: cell-based, pig; conditions: ouabain 15 min
[9] = test system: Akt; assay: Akt phosphorylation (pAkt) by Western blot, DU145 cells; type: cell-based, human; conditions: ouabain 15 min
Text: The pAkt was probed by Western blot.

[10] = test system: Akt; assay: Akt phosphorylation, PY-17 cells; type: cell-based, pig; conditions: ouabain, data not shown
[11] = biological target: T3, Na/K-ATPase α1 (Homo sapiens, UniProt P05023); assay: Na/K-ATPase α1 endocytosis by confocal immunostaining, BT20 cells; type: cell-based; parameters: endogenous in cells; host or cells: BT20; conditions: 10 nM ouabain
Description: (§2) Na/K-ATPase al was immunostained and visualized using Leica confocal microscope. The red arrows indicate the endocytosed vesicles containing Na/K-ATPase α1.
(§3) The cells were fixed with ice-cold methanol for 15 min and blocked with Signal Enhancer from Invitrogen. Monoclonal anti-Na/K-ATPase α1 antibody was then incubated with the cells overnight at 4° C. After 3 washes, a secondary Alexa 488-conjugated anti-mouse antibody was added and incubated for 2 h at room temperature. The coverslip was washed, mounted and imaged using a Leica confocal microscope.

[12] = biological target: T3, Na/K-ATPase α1; assay: Na/K-ATPase α1 degradation with cycloheximide, BT-20 cells; type: cell-based; parameters: endogenous in cells; host or cells: BT20; conditions: cycloheximide pre-treatment, 10 nM ouabain for 6, 16 and 24 h
Description: FIG. 6C: BT20 cells were treated as in panel B and assayed for Na/K-ATPase α1. *p<0.05.

[13] = biological target: T3, Na/K-ATPase α1; assay: Na/K-ATPase α1 endocytosis by confocal immunostaining, DU145 cells; type: cell-based; parameters: endogenous in cells; host or cells: DU145; conditions: 10 nM ouabain
Description: as §2, §3

[14] = biological target: T3, Na/K-ATPase α1; assay: Na/K-ATPase α1 expression, MDA-MB-435s cells; type: cell-based; parameters: endogenous in cells; host or cells: MDA-MB-435s; conditions: 5 nM ouabain, 24 h, N=3, P<0.05
Text: A significant reduction in α1 expression was detected (82±2% of control, N=3, P<0.05). Thus, ouabain-induced changes in α1 expression are clearly correlated with its effects on cell growth.

[15] = biological target: T3, Na/K-ATPase α1; assay: Na/K-ATPase α1 expression by Western blot, BT20 cells; type: cell-based; parameters: endogenous in cells; host or cells: BT20, DU145, MDA-MB-435s

C[C@@H]1O[C@@H](O[C@H]2C[C@@H](O)[C@]3(CO)[C@H]4[C@H](O)C[C@]5(C)[C@@H](C6=CC(=O)OC6)CC[C@]5(O)[C@@H]4CC[C@]3(O)C2)[C@H](O)[C@H](O)[C@H]1O [ouabain]
effect on cell growth (MTT) ([1]; 10-50 nM ouabain): significant inhibition of cell growth | stimulatory effect on cell growth (MTT) ([1]; different concentrations of ouabain): failed to detect any stimulatory effect | effect on cell growth (MTT) [2]: stimulated the cell growth | α1 expression with ouabain in the presence of rapamycin ([3]; 10 nM rapamycin pre-treatment, 10 nM ouabain 24 h): further decrease in the expression of al; also recorded: further decrease in the expression of a1 | Na/K-ATPase α1 expression ([3]; ouabain 24 h or 72 h exposure): induction of α1 expression | ouabain-induced α1 expression [4]: completely blocked ouabain-induced α1 expression | ouabain-induced increases in α1 expression [5]: completely abolished ouabain-induced increases in α1 expression | levels of α1 mRNA [6]: no effect on levels of α1 mRNA | degradation of Na/K-ATPase α1 subunit [7]: more degradation of al subunit; also recorded: more degradation of the a1 subunit | Akt phosphorylation [8]: stimulated Akt phosphorylation | Akt phosphorylation [9]: failed to do so | Akt phosphorylation [10]: no effect on Akt phosphorylation | endocytosis of Na/K-ATPase α1 (α1-positive vesicles) [11]: many al-positive vesicles were accumulated | degradation of Na/K-ATPase α1 subunit [12]: more degradation of al subunit; also recorded: more degradation of the a1 subunit | endocytosis of Na/K-ATPase α1 (α1-positive vesicles) [13]: many al-positive vesicles were accumulated | Na/K-ATPase α1 expression [14]: 82±2 % of control | cellular amount of Na/K-ATPase α1 ([15]; BT20 cells, ouabain 24 h or 72 h exposure): reduced the cellular amount of α1 | Na/K-ATPase α1 expression, 72 h versus 24 h ([15]; BT-20 cells, after 72 h of ouabain exposure): further reduction in al expression
